# According to patent publication US5081149A, “Antihepatopathic method” (Senju Pharmaceutical Co., Ltd., priority 1989, dated 1992):
# Key:
# [1] = test system: acetaminophen-induced hepatopathy; assay: Effects of DCE-GS on acetaminophen-induced hepatopathy in rats; format: in vivo, SD-strain male rats; details: for LDH (lactate dehydrogenase) / s-GOT / s-GPT / s-TG (serum triglyceride): 1 h before acetaminophen 300 mg/kg i.p., blood at 24 h, mean ± standard error (n = 6 to 8)
# Protocol: After 24 hours of fasting, SD-strain male rats weighing 180 g were orally given 200, 400 or 800 mg/kg of S-(α, β-dicarboxyethyl)glutathione (hereinafter referred to as "DCE-GS" for short). A control group was given physiological saline. An hour later, 300 mg/kg acetaminophen was intraperitoneally administered to each rat for causing hepatopathy. Twenty-four hours after acetaminophen administration,blood samples were collected from the rats under pentobarbital anesthesia via the abdominal aorta and subjected to blood biochemistry tests.
# blood coagulation = details: Kokai No. 63-8337 and Japanese Patent Applications Nos. 1-79956 and 1-183484; cited from earlier work
# platelet aggregation = details: Kokai No. 63-8337 and Japanese Patent Applications Nos. 1-79956 and 1-183484; cited from earlier work
# [2] = Kokai No. 63-8337 and Japanese Patent Applications Nos. 1-79956 and 1-183484; cited from earlier work
# [3] = 400 mg/kg oral, *p < 0.05 vs saline
# [4] = 800 mg/kg oral, *p < 0.05 vs saline
compound,measurement,setting,value
"N[C@@H](CCC(=O)N[C@@H](CSC(CC(=O)O)C(=O)O)C(=O)NCC(=O)O)C(=O)O (stereo partly drawn) [DCE-GS, S-(α, β-Dicarboxyethyl)glutathione]",LDH (lactate dehydrogenase),[1]; 200 mg/kg oral,6029 ± 485 Wrobrewski units
same,s-GOT,[1]; 200 mg/kg oral,1221 ± 179 IU/liter
same,s-GPT,[1]; 200 mg/kg oral,499 ± 66 IU/liter
same,s-TG (serum triglyceride),[1]; 200 mg/kg oral,28.8 ± 5.0 mg/dL
same,s-TG (serum triglyceride),[1]; 400 mg/kg oral,36.1 ± 7.6 mg/dL
same,LDH (lactate dehydrogenase),[1]; [3],4873 ± 973 Wrobrewski units
same,s-GOT,[1]; [3],677 ± 219 IU/liter
same,s-GPT,[1]; [3],262 ± 89 IU/liter
same,LDH (lactate dehydrogenase),[1]; [4],3722 ± 595 Wrobrewski units
same,s-GOT,[1]; [4],438 ± 131 IU/liter
same,s-GPT,[1]; [4],133 ± 39 IU/liter
same,s-TG (serum triglyceride),[1]; [4],53.9 ± 10.4 mg/dL
same,"effect on acetaminophen-induced changes in s-GOT, s-GPT, s-LDH and s-TG","[1]; 200, 400 or 800 mg/kg oral","dose-dependently suppressed the increases in s-GOT, s-GPT and s-LDH as well as the decrease in s-TG"
same,blood coagulation inhibiting activity,blood coagulation,blood coagulation inhibiting
same,platelet aggregation inhibiting activity,platelet aggregation,platelet aggregation inhibiting
same,antiinflammatory and/or antiallergic activity,[2],antiinflammatory and/or antiallergic activity
